Assay results taken from the NIST ThermoML archive (doi:10.1016/j.jct.2010.10.025).
± gives the expanded uncertainty stated by the source.

Test: xn = mol fraction of the nth substance listed
Settings: 101 kPa, Liquid; for speed of sound: Sing-around technique in a fixed-path interferometer; for mass density: Vibrating tube method

Cc1ccccc1O [2-methylphenol] + CCCCCCCCCO
x1 = 1
Settings	mass density [kg/m3]	speed of sound [m/s]
293.15 K	1045.69 ± 0.082	1521.8 ± 2.1
313.15 K	1028.14 ± 0.077	1453.3 ± 2.1

Cc1cccc(O)c1 [3-methylphenol] + CCCCCCCCCO
x1 = 1
Settings	mass density [kg/m3]	speed of sound [m/s]
293.15 K	1033.99 ± 0.077	1496.8 ± 2.1
313.15 K	1018.06 ± 0.072	1434.2 ± 2.1

Cc1ccc(O)cc1 [4-methylphenol] + CCCCCCCCCO
Settings	mass density, 293.15 K [kg/m3]	mass density, 313.15 K [kg/m3]	speed of sound, 293.15 K [m/s]	speed of sound, 313.15 K [m/s]
x1 = 0.0723	837.798 ± 0.14	823.756 ± 0.14	1387.3 ± 2.2	1319.8 ± 2.2
x1 = 0.1353	846.887 ± 0.14	832.662 ± 0.15	1392.7 ± 2.2	1324.9 ± 2.2
x1 = 0.2032	856.995 ± 0.14	842.572 ± 0.15	1398.2 ± 2.2	1330.5 ± 2.2
x1 = 0.2637	866.395 ± 0.15	851.785 ± 0.15	1403.2 ± 2.2	1335.7 ± 2.2
x1 = 0.3492	880.334 ± 0.15	865.479 ± 0.16	1410.3 ± 2.2	1343 ± 2.2
x1 = 0.4122	891.234 ± 0.16	876.214 ± 0.16	1415.5 ± 2.2	1348.6 ± 2.2
x1 = 0.4898	905.461 ± 0.17	890.246 ± 0.17	1422.7 ± 2.2	1356.1 ± 2.2
x1 = 0.5492	917.111 ± 0.17	901.771 ± 0.17	1428.7 ± 2.2	1362.2 ± 2.2
x1 = 0.6143	930.635 ± 0.18	915.184 ± 0.18	1436 ± 2.3	1369.8 ± 2.2
x1 = 0.6735	943.741 ± 0.18	928.201 ± 0.19	1443.4 ± 2.3	1377.4 ± 2.3
x1 = 0.7455	960.902 ± 0.19	945.287 ± 0.2	1453.2 ± 2.3	1388.3 ± 2.3
x1 = 0.8163	979.164 ± 0.2	963.518 ± 0.21	1464.5 ± 2.3	1400 ± 2.3
x1 = 0.8789	996.577 ± 0.22	980.938 ± 0.22	1476 ± 2.3	1412.3 ± 2.3
x1 = 0.9362	1013.65 ± 0.24	998.054 ± 0.23	1487.5 ± 2.3	1424.4 ± 2.3
x1 = 1	1033.99 ± 0.26	1018.47 ± 0.24	1502.2 ± 2.3	1439.6 ± 2.3

COc1ccccc1 [anisole] + CCCCCCCCCO
x1 = 1
Settings	mass density [kg/m3]	speed of sound [m/s]
293.15 K	993.845 ± 0.093	1427.3 ± 2.2
313.15 K	974.966 ± 0.097	1346.7 ± 2.2

CCCCCCCCCO [nonan-1-ol] + COc1ccccc1
Settings	mass density, 293.15 K [kg/m3]	mass density, 313.15 K [kg/m3]	speed of sound, 293.15 K [m/s]	speed of sound, 313.15 K [m/s]
x2 = 0	827.704 ± 0.14	813.877 ± 0.14	1380.7 ± 2.2	1314 ± 2.1
x2 = 0.0691	834.714 ± 0.13	820.629 ± 0.14	1379.8 ± 2.2	1312 ± 2.1
x2 = 0.1265	840.852 ± 0.13	826.539 ± 0.14	1379.1 ± 2.2	1310.9 ± 2.1
x2 = 0.2023	849.439 ± 0.13	834.809 ± 0.14	1378.5 ± 2.2	1309.8 ± 2.1
x2 = 0.2701	857.605 ± 0.13	842.665 ± 0.13	1378.4 ± 2.2	1309 ± 2.1
x2 = 0.335	865.942 ± 0.13	850.682 ± 0.13	1378.5 ± 2.2	1308.5 ± 2.1
x2 = 0.405	875.488 ± 0.12	859.873 ± 0.13	1379 ± 2.2	1308.3 ± 2.1
x2 = 0.4753	885.766 ± 0.12	869.775 ± 0.13	1380.2 ± 2.2	1308.6 ± 2.1
x2 = 0.5348	895.034 ± 0.12	878.714 ± 0.12	1381.6 ± 2.2	1309.2 ± 2.1
x2 = 0.6025	906.314 ± 0.12	889.609 ± 0.12	1384.2 ± 2.2	1311.1 ± 2.1
x2 = 0.6657	917.614 ± 0.12	900.551 ± 0.12	1387.5 ± 2.2	1313.4 ± 2.1
x2 = 0.7399	931.942 ± 0.11	914.464 ± 0.12	1392.7 ± 2.2	1317.5 ± 2.1
x2 = 0.8198	948.831 ± 0.11	930.915 ± 0.12	1400.4 ± 2.2	1323.4 ± 2.2
x2 = 0.8791	962.443 ± 0.11	944.199 ± 0.11	1407.4 ± 2.2	1329 ± 2.2
x2 = 0.9468	979.271 ± 0.11	960.651 ± 0.11	1417.5 ± 2.2	1337.5 ± 2.2

CCCCCCCCCO [nonan-1-ol] + Cc1ccc(O)cc1
x2 = 0
Settings	mass density [kg/m3]	speed of sound [m/s]
293.15 K	827.704 ± 0.14	1380.7 ± 2.2
313.15 K	813.877 ± 0.14	1314 ± 2.1

CCCCCCCCCO [nonan-1-ol] + Cc1cccc(O)c1
Settings	mass density, 293.15 K [kg/m3]	mass density, 313.15 K [kg/m3]	speed of sound, 293.15 K [m/s]	speed of sound, 313.15 K [m/s]
x2 = 0	827.704 ± 0.14	813.877 ± 0.14	1380.7 ± 2.2	1314 ± 2.1
x2 = 0.0696	837.032 ± 0.13	823.074 ± 0.14	1386.7 ± 2.2	1319.2 ± 2.1
x2 = 0.1336	845.992 ± 0.13	831.904 ± 0.13	1390.8 ± 2.1	1323.6 ± 2.1
x2 = 0.2038	856.282 ± 0.12	842.048 ± 0.13	1395.6 ± 2.1	1328.8 ± 2.1
x2 = 0.2679	866.185 ± 0.12	851.815 ± 0.12	1400.4 ± 2.1	1333.8 ± 2.1
x2 = 0.3231	875.133 ± 0.12	860.644 ± 0.12	1404.9 ± 2.1	1338.4 ± 2.1
x2 = 0.3971	887.768 ± 0.11	873.113 ± 0.12	1411.3 ± 2.1	1345 ± 2.1
x2 = 0.4653	900.156 ± 0.11	885.348 ± 0.11	1417.5 ± 2.1	1351.6 ± 2.1
x2 = 0.5405	914.757 ± 0.1	899.778 ± 0.11	1425.3 ± 2.1	1359.6 ± 2.1
x2 = 0.6082	928.851 ± 0.1	913.714 ± 0.1	1432.9 ± 2.1	1367.1 ± 2.1
x2 = 0.6786	944.571 ± 0.098	929.281 ± 0.1	1441.8 ± 2.1	1376.3 ± 2.1
x2 = 0.7459	960.755 ± 0.095	945.321 ± 0.097	1451.1 ± 2.1	1386.2 ± 2.1
x2 = 0.8167	979.083 ± 0.093	963.512 ± 0.095	1461.2 ± 2.1	1397.7 ± 2.1
x2 = 0.8892	999.352 ± 0.091	983.643 ± 0.092	1474.3 ± 2.1	1410.7 ± 2.1
x2 = 0.9459	1016.5 ± 0.096	1000.7 ± 0.092	1485 ± 2.1	1422.1 ± 2.1

CCCCCCCCCO [nonan-1-ol] + Cc1ccccc1O
Settings	mass density, 293.15 K [kg/m3]	mass density, 313.15 K [kg/m3]	speed of sound, 293.15 K [m/s]	speed of sound, 313.15 K [m/s]
x2 = 0	827.704 ± 0.14	813.877 ± 0.14	1380.7 ± 2.2	1314 ± 2.1
x2 = 0.0747	838.281 ± 0.13	824.298 ± 0.14	1388 ± 2.2	1320 ± 2.1
x2 = 0.1411	848.105 ± 0.13	833.982 ± 0.13	1393.4 ± 2.1	1325.4 ± 2.1
x2 = 0.2087	858.578 ± 0.12	844.312 ± 0.13	1398.9 ± 2.1	1330.9 ± 2.1
x2 = 0.2614	867.121 ± 0.12	852.733 ± 0.12	1403.3 ± 2.1	1335.5 ± 2.1
x2 = 0.326	878.085 ± 0.12	863.535 ± 0.12	1408.9 ± 2.1	1341.4 ± 2.1
x2 = 0.4013	891.616 ± 0.11	876.862 ± 0.12	1416.1 ± 2.1	1348.8 ± 2.1
x2 = 0.4562	902.048 ± 0.11	887.133 ± 0.11	1422 ± 2.1	1354.7 ± 2.1
x2 = 0.5303	916.987 ± 0.1	901.834 ± 0.11	1430.5 ± 2.1	1363.3 ± 2.1
x2 = 0.5829	928.291 ± 0.1	912.952 ± 0.1	1437.3 ± 2.1	1370 ± 2.1
x2 = 0.645	942.416 ± 0.099	926.834 ± 0.1	1446.2 ± 2.1	1378.7 ± 2.1
x2 = 0.7171	960.1 ± 0.096	944.211 ± 0.099	1457.8 ± 2.1	1389.8 ± 2.1
x2 = 0.784	977.81 ± 0.095	961.595 ± 0.096	1470 ± 2.1	1401.7 ± 2.1
x2 = 0.8566	998.699 ± 0.094	982.094 ± 0.095	1485.3 ± 2.1	1416.7 ± 2.1
x2 = 0.9397	1024.88 ± 0.1	1007.76 ± 0.096	1505.2 ± 2.1	1436.5 ± 2.1
